# In publication PMC11489133, “Obicetrapib exhibits favorable physiochemical and pharmacokinetic properties compared to previous cholesteryl ester transfer protein inhibitors: An integrated summary of results from non‐human primate studies and clinical trials” (Pharmacology Research & Perspectives, 2024):
# Where two headings read alike, the source gives them in different places. Marks after values point to notes of the source that are not given here.
# Columns and labels:
# [1] = absorption, metabolism and excretion study of a single 10 mg dose of 14C-obicetrapib (NCT02408055, TA‐8995‐07); type: in vivo, humans
# Method: Figure 2 illustrates the obicetrapib (TA‐8995) M1 detected above the LLOQ (>1% radioactivity) in human plasma expressed as the percent radioactivity profiled. A study (NCT02408055) was conducted in healthy male participants (n = 6) to assess the absorption, metabolism, and excretion of a single dose of 10 mg of ^14C‐obicetrapib (TA‐8995‐07 CSR, NewAmsterdam Pharma). One of the objectives of the study was to determine the chemical structure of ^14C‐obicetrapib M1 that represent ≥10% of total radioactivity in plasma. The participants received 10 mL ^14C‐obicetrapib oral suspension, containing 10 mg and 100 μCi of ^14C‐obicetrapib in the fasted state. Clinical samples for analysis were selected based upon the levels of radioactivity present as determined by liquid scintillation counting and were stored at below −50°C (nominally −80°C) when not in use. Plasma samples from the participants were sequentially extracted with acetonitrile at five time points. The resulting extracts were concentrated by evaporation and reconstituted in mobile phase HPLC prior to analysis by radio‐HPLC. All samples were analyzed by liquid scintillation counting to evaluate the recovery of radioactivity. The profiles of the radiolabeled components in each sample of plasma were determined by HPLC analysis with off‐line radio‐detection. Selected samples from each matrix were then further analyzed by high‐resolution mass spectrometry to investigate the identity of M1. In plasma, the predominant metabolite component was unchanged obicetrapib (~79% of total drug‐related exposure), and the most abundant plasma M1 were M1 and P9 of which each accounted for ~4% of total exposure (Figure 2). No significant differences in the metabolite profiles were observed across the samples obtained from the six participants (TA‐8995‐07 CSR, NewAmsterdam Pharma).
# [2] = ROSE Phase II trial, plasma concentrations of obicetrapib; type: in vivo, humans; conditions: for % Change in Plasma Level: Week 8 to Week 23, mean (SD); for concentration at 8 weeks / concentration at 23 weeks: both sexes, human, plasma, oral, read-out: Mean (SD) Plasma Level; for concentration at 8 weeks: Week 8 (EOT); for concentration at 23 weeks: Week 23, fifteen weeks after the end of treatment
# Method: The PK parameters and the effect of food on the bioavailability of obicetrapib in humans have been examined in both Phase I[9] (TA‐8995‐09 CSR, NewAmsterdam Pharma) and Phase II trials.[10], [11], [12], [13] The trials were performed in accordance with the Declaration of Helsinki, Good Clinical Practice Guidelines, and applicable regulatory requirements. Approval was obtained from the relevant ethical review boards for each site. All volunteers provided written informed consent prior to participation. PK parameters were determined using WinNonlin software, version 4.1 or higher (Pharsight/Certara Corporation, USA). Concentrations of obicetrapib were summarized for each treatment group using descriptive statistics.
# ROSE (NCT04753606) was a placebo‐controlled, double‐blind, randomized trial conducted to evaluate the efficacy of obicetrapib as an adjunct to high‐intensity statin therapy for reducing LDL‐C and ApoB levels.[11] A secondary endpoint of the trial included assessing plasma concentrations of obicetrapib during and after the end of treatment. […] One hundred twenty participants (mean age: 61.8 years; 55.8% male; 76.7% White; mean BMI: 31.1 kg/m^2) were enrolled at 17 clinical research sites in the United States and randomized in a 1:1:1 ratio to one of three treatment groups: (1) placebo; (2) 5 mg obicetrapib; or (3) 10 mg obicetrapib. The participants were instructed to take their assigned treatment orally with food once daily at approximately the same time each morning for the 8‐week treatment period. After randomization, participants returned to the clinical research site during Weeks 4 and 8 (end of treatment) for PK assessments. Additionally, participants completed follow‐up visits at four, eight, and 15 weeks after the end of treatment (Weeks 12, 16, and 23) for PK assessments. Of the 120 participants randomized in ROSE, 119 (99.2%) completed treatment; all 120 participants randomized were included in the modified Intent‐to‐Treat (mITT) analysis. The PK population (n = 80) included all randomized participants in the mITT population assigned to the two obicetrapib dose groups who had sufficient blood samples collected for valid estimation of PK parameters. Seventy‐seven (96.3%), 79 (98.8%), and 79 (98.8%) participants in the PK population for ROSE were included in the 4‐, 8‐, and 15‐week post‐end of treatment PK analyses, respectively (TA‐8995‐201 CSR, NewAmsterdam Pharma).
# [3] = cited from earlier work
# [4] = TULIP Phase II trial, plasma concentrations of obicetrapib; type: in vivo, humans; conditions: any of the participants
# [5] = parameters: method as in PMID 24628035; conditions: cited from earlier work; for t ½ (terminal half‐life) / AUC (0–24 h) / C max / t max: fasting; for t ½ (terminal half‐life): arithmetic mean (CV%); for AUC (0–24 h) / C max: geometric mean (CV%); for C max: healthy White males
# [6] = parameters: method as in PMID 24628035; conditions: cited from earlier work; for t ½ (terminal half‐life): arithmetic mean (CV%)
# [7] = Obicetrapib 5 mg + high‐intensity statin
# [8] = Obicetrapib 10 mg + high‐intensity statin
# [9] = single dose 5 mg, after a standard breakfast, geometric mean (CV%)
# [10] = single dose 10 mg, after a standard breakfast, geometric mean (CV%)
smiles,measurement,setting,value
CCOC(=O)N1c2ccc(C(F)(F)F)cc2C(N(Cc2cc(C(F)(F)F)cc(C(F)(F)F)c2)c2ncc(OCCCC(=O)O)cn2)CC1CC (stereo not drawn) [Obicetrapib],percent radioactivity profiled in human plasma,"[1]; n = 6 individuals, 24 h AUC pools, Figure 2",up to 92.8%
same,share of total drug‐related exposure in plasma,"[1]; single 10 mg 14C‐obicetrapib, fasted, healthy males n = 6",~ 79%
same,% Change in Plasma Level,[2]; [7],−98.5 (1.7) %
same,% Change in Plasma Level,"[2]; Obicetrapib 5 mg + high‐intensity statin, listed as obicetrapib",−98.5%
same,% Change in Plasma Level,[2]; [8],−98.4 (1.9) %
same,concentration at 8 weeks,[2]; [7],254 ng/mL
same,concentration at 23 weeks,[2]; [7],2.9 ng/mL
same,concentration at 8 weeks,[2]; [8],395 ng/mL
same,concentration at 23 weeks,[2]; [8],5.6 ng/mL
same,PSA,[3],105 Å^2
same,obicetrapib in urine,[4],not detected
same,effect of food on the AUC or C max,"[5]; 50 mg dose, fed versus fasted, n = 5 White healthy males",did not have a clinically relevant effect
same,"effects of food, age, gender, or ethnicity on the PK parameters",[5]; PK assessment results of the other groups,no clinically relevant effects
same,t ½ (terminal half‐life),[5]; single dose 5 mg,125 (22%) h
same,AUC (0–24 h),[5]; single dose 5 mg,1816 (34%) ng·h/mL
same,C max,[5]; single dose 5 mg,138 (33%) ng/mL
same,t max,"[5]; single dose 5 mg, median (minimum, maximum)","3 (2, 3) h"
same,t max,"[5]; single dose 5 mg, median (minimum, maximum), listed as obicetrapib",≤ 3 h
same,t ½ (terminal half‐life),[5]; single dose 10 mg,124 (20%) h
same,AUC (0–24 h),[5]; single dose 10 mg,3580 (21%) ng·h/mL
same,C max,[5]; single dose 10 mg,251 (23%) ng/mL
same,t max,"[5]; single dose 10 mg, median (minimum, maximum)","3 (2, 5) h"
same,t max,"[5]; single dose 10 mg, median (minimum, maximum), listed as obicetrapib",≤ 3 h
same,t ½ (terminal half‐life),[5]; single dose 25 mg,162 (19%) h
same,AUC (0–24 h),[5]; single dose 25 mg,5952 (26%) ng·h/mL
same,C max,[5]; single dose 25 mg,467 (30%) ng/mL
same,t max,"[5]; single dose 25 mg, median (minimum, maximum)","3.5 (2, 6) h"
same,t max,[5]; single doses 50–150 mg,4 h
same,obicetrapib in urine,"[5]; single doses, any participant",not detected
same,t ½ (terminal half‐life),"[6]; multiple daily doses 5 mg, after the last dose",148 (30%) h
same,t max,"[6]; multiple daily doses 5 mg, after the last dose, median (minimum, maximum)","4 (3, 8) h"
same,C max,"[6]; multiple daily doses 5 mg, steady state, after the last dose, geometric mean (CV%)",436 (18%) ng/mL
same,"AUC (0, τ, ss)","[6]; multiple daily doses 5 mg, steady state, τ 24 h, geometric mean (CV%)",7606 (20%) ^f ng·h/mL
same,"Rac (accumulation ratio, AUC(0,τ,ss)/AUC(0–24 h))",[6]; multiple daily doses 5 mg,4.3 (1.1)
same,"Rac (accumulation ratio, AUC(0,τ,ss)/AUC(0–24 h))","[6]; multiple daily doses 5 mg, listed as obicetrapib",4.3
same,t ½ (terminal half‐life),"[6]; multiple daily doses 10 mg, after the last dose",131 (19%) h
same,t max,"[6]; multiple daily doses 10 mg, after the last dose, median (minimum, maximum)","6 (4, 8) h"
same,C max,"[6]; multiple daily doses 10 mg, steady state, after the last dose, geometric mean (CV%)",692 (23%) ng/mL
same,"Rac (accumulation ratio, AUC(0,τ,ss)/AUC(0–24 h))",[6]; multiple daily doses 10 mg,3.7 (0.8)
same,"Rac (accumulation ratio, AUC(0,τ,ss)/AUC(0–24 h))","[6]; multiple daily doses 10 mg, listed as obicetrapib",3.7
same,t ½ (terminal half‐life),"[6]; multiple daily doses 25 mg, after the last dose",121 (23%) h
same,t max,"[6]; multiple daily doses 25 mg, after the last dose, median (minimum, maximum)","4 (2, 6) h"
same,C max,"[6]; multiple daily doses 25 mg, steady state, after the last dose, geometric mean (CV%)",1398 (18%) ng/mL
same,"Rac (accumulation ratio, AUC(0,τ,ss)/AUC(0–24 h))",[6]; multiple daily doses 25 mg,2.1 (0.3)
same,"Rac (accumulation ratio, AUC(0,τ,ss)/AUC(0–24 h))","[6]; multiple daily doses 25 mg, listed as obicetrapib",2.1
same,t max,"[6]; multiple daily doses, all doses except 10 mg",4 h
same,obicetrapib in urine,"[6]; multiple doses, any participant",not detected
same,AUC (0–24 h),[6]; [9],1796 (14%) ng·h/mL
same,C max,[6]; [9],116 (13%) ng/mL
same,t max,"[6]; single dose 5 mg, after a standard breakfast, median (minimum, maximum)","6 (4, 8) h"
same,AUC (0–24 h),[6]; [10],3471 (18%) ng·h/mL
same,C max,[6]; [10],245 (14%) ng/mL
same,t max,"[6]; single dose 10 mg, after a standard breakfast, median (minimum, maximum)","6 (4, 8) h"
same,C max,"[6]; single dose 25 mg, after a standard breakfast, geometric mean (CV%)",750 (19%) ng/mL
same,t max,"[6]; single dose 25 mg, after a standard breakfast, median (minimum, maximum)","6 (3, 8) h"
same,t max,[6]; single dose regardless of the strength of the dose (1–25 mg),6 h
same,time in which plasma levels were approaching steady state,"[6]; visual inspection of trough concentrations, multiple once daily doses",within one to two weeks
